The term pIC50 denotes the IC50 on a negative log10 scale, so that one unit is a factor of ten.

pIC50: −log10 of the molar value.

For the assay, the target named is T1, recombinant, human protein tyrosine phosphatase (PTP) 1B (hPTP1B) (Homo sapiens, UniProt P18031).
T1 construct: made in house
T1 sequence (P18031 1-435): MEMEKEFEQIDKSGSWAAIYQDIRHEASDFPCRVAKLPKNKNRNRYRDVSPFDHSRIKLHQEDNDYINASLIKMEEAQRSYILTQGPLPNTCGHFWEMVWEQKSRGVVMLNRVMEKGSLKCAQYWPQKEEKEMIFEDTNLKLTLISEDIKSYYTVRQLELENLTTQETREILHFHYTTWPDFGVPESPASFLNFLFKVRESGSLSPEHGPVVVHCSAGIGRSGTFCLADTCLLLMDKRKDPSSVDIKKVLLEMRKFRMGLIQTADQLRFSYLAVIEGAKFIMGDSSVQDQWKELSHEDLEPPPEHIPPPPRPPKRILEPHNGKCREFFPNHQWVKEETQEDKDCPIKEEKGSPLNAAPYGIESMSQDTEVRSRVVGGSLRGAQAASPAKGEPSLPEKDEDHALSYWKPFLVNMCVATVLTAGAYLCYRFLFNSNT
Description: Inhibition of tri-phosphorylated insulin receptor dodecaphosphopeptide dephosphorylation by hPTP1B. It counts as biochemical. Conditions: 50 μM IR triphosphopeptide substrate, 5 min preincubation and 5 min reaction at 37° C., malachite green-ammonium molybdate phosphate detection.

As for `O=C(O)COc1ccc(C(=O)NCCCCCCCCc2ccccc2)cc1-c1ccc(F)c(Cl)c1` [Example 136, [3′-Chloro-4′-fluoro-5-(8-phenyl-octylcarbamoyl)-biphenyl-2-yloxy]acetic acid], the pIC50 was 6.34. For `Cc1cc(C)cc(-c2cc(C(=O)NCCCCCCCCc3ccccc3)cc(-c3cc(C)cc(C)c3)c2OCC(=O)O)c1` [Example 141, [3,5,3″,5″-Tetramethyl-5′-(8-phenyl-octylcarbamoyl)-[1,1′:3′,1″]terphenyl-2′-yloxy]acetic acid] the value was 7.15; for `Cc1cccc(-c2cc(C(=O)NCCCCCCCc3ccccc3)cc(-c3cccc(C)c3)c2OCCCC(=O)O)c1` [Example 146, 4-[3,3″-Dimethyl-5′-(7-phenyl-heptylcarbamoyl)-[1,1′:3′,1″]terphenyl-2′-yloxy]-butyric acid], 6.59; for `COCOc1c(-c2cccc(C=O)c2)cc(C(=O)NCCCCCCCc2ccccc2)cc1-c1cccc(C=O)c1` [Example 149, 3,3″-Diformyl-2′-methoxymethoxy-[1,1′:3′,1″]terphenyl-5′-carboxylic acid (7-phenyl-heptyl)-amide], 6.39. As for `O=C(NCCCCCCCCc1ccccc1)c1cc(Br)c(O)c(-c2cccc(C(=O)OCCCCCl)c2)c1` [Example 152, 3′-Bromo-2′-hydroxy-5′-(8-phenyl-octylcarbamoyl)-biphenyl-3-carboxylic acid 4-chloro-butyl ester], the pIC50 was 6.40. The figure for `CCCCCCCCCCCCNC(=O)c1cc(-c2cccc(Cl)c2)c(OCC(=O)O)c(-c2cccc(C(F)(F)F)c2)c1` [Example 153, (3″-Chloro-5′-dodecylcarbamoyl-3-trifluoromethyl-[1,1′;3′,1″]terphenyl-2′-yloxy)acetic acid] is 7.01; for `CCCCCCCCCCCCNC(=O)c1cc(-c2ccc(OC)cc2)c(OCC(=O)O)c(-c2cccc(C(F)(F)F)c2)c1` [Example 154, (5′-Dodecylcarbamoyl-4″-methoxy-3-trifluoromethyl-[1,1′;3′1″]terphenyl-2′-yloxy)acetic acid] it is 6.89.

Take `CCCCCCCCCCCCNC(=O)c1cc(-c2ccc(OC)cc2)c(OCC(=O)O)c(-c2ccccc2F)c1` [Example 155, (5′-Dodecylcarbamoyl-2″-fluoro-4-methoxy-[1,1′;3′,1″]terphenyl-2′-′yloxy)acetic acid]: the pIC50 was 6.86.

Turning to `CCCCCCCOc1ccc(CNC(=O)c2cc(-c3cccc(Cl)c3)c(OCC(=O)O)c(-c3cccc(Cl)c3)c2)cc1` [Example 162, [3,3″-Dichloro-5′-(4-heptyloxy-benzylcarbamoyl)-[1,1′;3′,1″]terphenyl-2′-yloxy]acetic acid], the pIC50 was 6.87. For `O=C(O)CCCCOc1c(-c2cccc(Cl)c2)cc(C(=O)NCCCCCCCCn2ccc3ccccc32)cc1-c1cccc(Cl)c1` [Example 164, 5-[3,3″-Dichloro-5′-(8-indol-1-yl-octylcarbamoyl)-[1,1′;3′,1″]terphenyl-2′-yloxy]-pentanoic acid], the pIC50 was 6.72. Consider `O=C(O)c1ccc(OCCOc2c(-c3cccc(Cl)c3)cc(C(=O)NCCCCCCCCn3ccc4ccccc43)cc2-c2cccc(Cl)c2)cc1` [Example 165, 4-{2-[3,3″-Dichloro-5′-(8-indol-1-yl-octylcarbamoyl)-[1,1′:3′,1″]terphenyl-2′-yloxy]-ethoxy}benzoic acid], for which the pIC50 was 7.11. For `O=C(O)COc1c(-c2cccc(Cl)c2)cc(C(=O)NCCCCCCO)cc1-c1cccc(Cl)c1` [Example 167, [3,3″-Dichloro-5′-(6-hydroxy-hexylcarbamoyl)-[1,1′:3′,1″]terphenyl-2′-yloxy]acetic acid], the pIC50 is 6.64. In the case of `O=C(O)COCCOc1c(-c2cccc(Cl)c2)cc(C(=O)NCCCCCCCCn2ccc3ccccc32)cc1-c1cccc(Cl)c1` [Example 168, {2-[3,3″-Dichloro-5′-(8-indol-1-yl-octylcarbamoyl)-[1,1′:3′,1″]terphenyl-2′-yloxy]-ethoxy}acetic acid], the pIC50 is 7.11. For `CCCCCCCCCCCCCc1cc(-c2ccccc2)c(OCC(=O)O)c(-c2ccccc2)c1` [Example 171, (5′-Tridecyl-[1,1′;3′,1″]terphenyl-2′-yloxy)acetic acid] the value was 7.74. In the case of `CCCCCCCCCCOc1cc(-c2ccccc2)c(OCC(=O)O)c(-c2ccccc2)c1` [Example 172, (5′-Decyloxy-[1,1′;3′,1″]terphenyl-2′-yloxy)acetic acid], the pIC50 was 6.81. The figure for `CCCCCCCCCCCCNC(=O)c1cc(Br)c(OCC(=O)O)c(-c2cccc(C(F)(F)F)c2)c1` [Example 176, (3-Bromo-5-dodecylcarbamoyl-3′-trifluoromethyl-biphenyl-2-yloxy)-acetic acid] is 6.92; for `O=C(O)COc1c(-c2cccc(C(F)(F)F)c2)cc(C(=O)NCCCCCCCCc2ccccc2)cc1-c1cccc(C(F)(F)F)c1` [Example 177] it is 6.98. `CCCCCCCCCCCCNC(=O)c1cc(Br)c(OS(=O)(=O)c2ccc(C(=O)O)c(O)c2)c(-c2cccc(C(F)(F)F)c2)c1` [Example 179, 4-(3-Bromo-5-dodecylcarbamoyl-3′-trifluoromethyl-biphenyl-2-yloxysulfonyl)-2-hydroxy-benzoic acid]: the pIC50 was 7.60. As to `O=C(O)CCCCOc1c(-c2cccc(C(F)(F)F)c2)cc(C(=O)NCCCCCCCCc2ccccc2)cc1-c1cccc(C(F)(F)F)c1` [Example 192], the pIC50 was 6.97. `O=C(NCCCCCCCCc1ccccc1)c1cc(Br)c(O)c(-c2cccc(C(F)(F)F)c2)c1` [Example 194, 5-Bromo-6-hydroxy-3′-trifluoromethyl-biphenyl-3-carboxylic acid (8-phenyl-octyl)-amide]: the pIC50 is 6.19. On to `O=C(NCCCCCCCCc1ccccc1)c1cc(Br)c(OS(=O)(=O)c2ccc(C(=O)O)c(O)c2)c(-c2cccc(C(F)(F)F)c2)c1` [Example 195, 4-[3-Bromo-5-(8-phenyl-octylcarbamoyl)-3′-trifluoromethyl-biphenyl-2-yloxysulfonyl]-2-hydroxy-benzoic acid], for which the pIC50 was 7.14. For the compound `O=C(O)CCCCCCOc1c(-c2cccc(C(F)(F)F)c2)cc(C(=O)NCCCCCCCCc2ccccc2)cc1-c1cccc(C(F)(F)F)c1` [Example 196, 7-[5′-(8-Phenyl-octylcarbamoyl)-3,3″-bistrifluoromethyl-[1,1′;3′,1″]terphenyl-2′-yloxy]-heptanoic acid], the pIC50 is 6.82. In the case of `O=C(NCCCCCCCCc1ccccc1)c1cc(-c2cccc(C(F)(F)F)c2)c(OCCNc2c(O)c(=O)c2=O)c(-c2cccc(C(F)(F)F)c2)c1` [Example 197], the negative-log IC50 (pIC50) is 7.00. In the case of `COc1cc(COc2c(-c3cccc(C(F)(F)F)c3)cc(C(=O)NCCCCCCCCc3ccccc3)cc2-c2cccc(C(F)(F)F)c2)ccc1C(=O)O` [Example 199, 2-Methoxy-4-[5′-(8-phenyl-octylcarbamoyl)-3,3″-bis-trifluoromethyl-[1,1′:3′1″]terphenyl-2′yloxymethyl]-benzoic acid], the pIC50 is 6.99.

With `O=C(NCCCCCCCCc1ccccc1)c1cc(-c2cccc(C(F)(F)F)c2)c(OS(=O)(=O)c2ccc(C(=O)O)c(O)c2)c(-c2cccc(C(F)(F)F)c2)c1` [Example 203, 2-Hydroxy-4-[5′-(8-phenyl-octylcarbamoyl)-3,3″-bis-trifluoromethyl-[1,1′:3′1″]terphenyl-2′-yloxysulfonyl]-benzoic acid], the pIC50 is 7.30. For the compound `COc1cc(COc2c(Br)cc(C(=O)NCCCCCCCCc3ccccc3)cc2-c2cccc(C(F)(F)F)c2)ccc1C(=O)O` [Example 204, 4-[3-Bromo-5-(8-phenyl-octylcarbamoyl)-3′-trifluoromethyl-biphenyl-2-yloxymethyl]-2-methoxy-benzoic acid], the pIC50 is 7.14. For `O=C(NCCCCCCCCc1ccccc1)c1cc(-c2cccc(C(F)(F)F)c2)c(OCc2nnn[nH]2)c(-c2cccc(C(F)(F)F)c2)c1` [Example 206, 2′-(1H-Tetrazol-5-ylmethoxy)-3,3″-bis-trifluoromethyl-[1,1′:3′1″]terphenyl-5′-carboxylic acid (8-phenyl-octyl)-amide], the negative logarithm of the IC50 (pIC50) was 6.54. The figure for `O=C(NCCCCCCCCc1ccccc1)c1cc(Br)c(OCc2ccc(C(=O)O)c(O)c2)c(-c2cccc(C(F)(F)F)c2)c1` [Example 208, 4-[3-Bromo-5-(8-phenyl-octylcarbamoyl)-3′-trifluoromethyl-biphenyl-2-yloxymethyl]-2-hydroxy-benzoic acid] is 7.08; for `O=C(NCCCCCCCCc1ccccc1)c1ccc(OS(=O)(=O)c2ccc(C(=O)O)c(O)c2)c(Br)c1` [Example 210, 4-[2-Bromo-4-(8-phenyl-octylcarbamoyl)-phenoxysulfonyl]-2-hydroxy-benzoic acid] it is 6.28; for `O=C(NCCCCCCCCc1ccccc1)c1cc(-c2cccc(C(F)(F)F)c2)c(OCCOc2ccc(C(=O)O)c(O)c2)c(-c2cccc(C(F)(F)F)c2)c1` [Example 211, 2-Hydroxy-4-{2-[5′-(8-phenyl-octylcarbamoyl)-3,3″-bis-trifluoromethyl-[1,1′:3′,1″]terphenyl-2′-yloxy]-ethoxy}-benzoic acid] it is 7.22.

For the compound `CN(CCCCCCCCc1ccccc1)C(=O)c1cc(Br)c(OCC(=O)O)c(-c2cccc(C(F)(F)F)c2)c1` [Example 212, {3-Bromo-5-[methyl-(8-phenyl-octyl)-carbamoyl]-3′-trifluoromethyl-biphenyl-2-yloxy]-acetic acid], the pIC50 is 6.57.

Values taken from US7008636B2, “2,3,5-substituted biphenyls useful in the treatment of insulin resistance and hyperglycemia” (Wyeth, priority 1998, dated 2006).
